Here are results for four compounds from publication PMC3027353 (Journal of nuclear medicine : official publication, Society …, 2010).

In data set [1] the target is T1, TSPO (Rattus norvegicus, UniProt P16257). The experiment in a line: Radioligand displacement of [^3H]PK 11195 by PBR06 in C6 glioma cell lysate. The data set is classed as binding. To be noted: C6 glioma cell line homogenates/lysate; non-linear regression; triplicate.
For data set [2], the target named is T1, TSPO. To be noted: cited from earlier work.
Data set [3] has as its target T1, TSPO. Type of data set: in vivo. The note with it: for K1/k2: 3-compartment, 4-rate constant model; for VT (total distribution volume): from graphical analysis, N = 4.
For data set [4], the target named is T1, TSPO. The note with it: in vivo.
The nature of data set [5]: HPLC radiometabolite analysis of arterial plasma after [^18F]PBR06 injection. Type of data set: in vivo, rat.

The structures appear in SMILES notation. Like-named read-outs stand apart in the source and are kept apart here.

T1 sequence (P16257 whole entry): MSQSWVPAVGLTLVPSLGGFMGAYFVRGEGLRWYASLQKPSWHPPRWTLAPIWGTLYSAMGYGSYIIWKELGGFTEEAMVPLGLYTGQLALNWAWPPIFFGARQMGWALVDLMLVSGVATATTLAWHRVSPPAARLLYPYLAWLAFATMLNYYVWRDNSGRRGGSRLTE

As for `COc1ccc(OC)c(CN(C(=O)CF)c2ccccc2Oc2ccccc2)c1` [PBR06, N-fluoroacetyl-N-(2,5-dimethoxybenzyl)-2-phenoxyaniline], the “IC50, displacement of [^3H]PK 11195” value at TSPO [1] is reported as “in the nanomolar range”.

Take `CCC(C)N(C)C(=O)c1cc2ccccc2c(-c2ccccc2Cl)n1` (centres unmarked) [PK 11195]: at TSPO [2], the “In vitro affinity for TSPO” value is on record as “low nanomolar range”.

For the compound `CN1C(=O)CN=C(c2ccc(Cl)cc2)c2cc(Cl)ccc21` [Ro5-4864], on TSPO [2], the “In vitro affinity for TSPO” value is “low nanomolar range”.

For the compound `COc1ccc(OC)c(CN(C(=O)C[18F])c2ccccc2Oc2ccccc2)c1` [[^18F]PBR06, ^18F-N-fluoroacetyl-N-(2,5-dimethoxybenzyl)-2-phenoxyaniline], the K1/k2 on TSPO [3] (Brain, mean ± S.E., N = 3) amounted to 6.164 ± 2.049 mL/g; at TSPO [3] (Tumor, mean ± S.E., N = 3), 5.947 ± 1.982 mL/g. The “VT (total distribution volume)” value at TSPO [3] (Brain, mean ± S.E.) stood at 13.07 ± 3.901 mL/g; at TSPO [3] (Tumor, mean ± S.E.) it was 63.90 ± 3.400 mL/g. In addition, the k3 on TSPO [3] (Brain, mean ± S.E., N = 3) was found to be 0.0714 ± 0.0261 min⁻¹; at TSPO [3] (Tumor, mean ± S.E., N = 3), 0.3870 ± 0.1592 min⁻¹. Further, at TSPO [3] (Brain, mean ± S.E., N = 3), the k4 is 0.00945 ± 0.005532 min⁻¹. Besides, the Plasma clearance entry at TSPO [3] (after initial spike following tracer injection) is “rapidly cleared from plasma”. Moreover, the “Total radioactivity in tumor tissue relative to normal brain” value on TSPO [3] (last 20 minutes of the 90 min PET scan, C6 glioma-bearing rats) is recorded as “three- to four-fold higher”. In addition, the “Displaceable binding of [^18F]PBR06 in tumor” value on TSPO [4] is listed as “approximately 75%”. Further, on TSPO [4], the “Tumor activity after PBR06 injection, as % of peak tumor uptake” value is recorded as “approximately 25%”. Moreover, the “Fraction of plasma radioactivity” value worked out at 57% in data set [5] (at 45 min after [^18F]PBR06, 15 min after cold PBR06 infusion); 75% in data set [5] (printed 'at 2.8 min' (2 min sample after [^18F]PBR06 injection)); 38% in data set [5] (printed 'at 30 min' (25 min sample after [^18F]PBR06 injection)).
